In test [1] the target is T1, FPR2 (Homo sapiens, UniProt P25090).
T1 construct: expressed in transfected cells; host or cells: RBL cells (RBL-FPR2)
T1 sequence (P25090 1-351): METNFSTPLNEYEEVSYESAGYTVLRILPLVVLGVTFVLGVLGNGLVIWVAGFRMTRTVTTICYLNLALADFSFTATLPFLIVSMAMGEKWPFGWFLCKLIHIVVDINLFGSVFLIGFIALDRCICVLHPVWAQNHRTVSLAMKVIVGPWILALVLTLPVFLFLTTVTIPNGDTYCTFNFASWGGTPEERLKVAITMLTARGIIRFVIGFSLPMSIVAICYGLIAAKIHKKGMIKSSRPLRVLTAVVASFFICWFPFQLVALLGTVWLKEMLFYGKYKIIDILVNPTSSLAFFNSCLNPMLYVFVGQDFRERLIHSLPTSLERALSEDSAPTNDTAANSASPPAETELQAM
Put plainly: Change in calcium activity by peptide (Fura-2) in RBL cells overexpressing FPR2. The test is classed as cell-based. The following applies: calcium activity (Fura-2), graded per Table 3, read-out: EC50 for [Ca^2+] FPR2. The protocol: The present inventors observed changes in calcium ion permeability to confirm whether the immunomodulatory peptide candidates prepared according to one example of the present invention activate the immune function of a living organism. Specifically, the concentration of calcium ions in cells was measured to confirm whether the peptides activate FPR2.
A peptide dissolved in water or 50% DMSO at a concentration of 0.5 mM was prepared by diluting it to an appropriate concentration in HBSS (Sigma, #55037C)+20 mM HEPES buffer.
In this experiment, the cells were cultured in DMEM (Lonza, #BE12-604F) containing 10% fetal bovine serum (FBS) and 1% penicillin-streptomycin under conditions of 37° C. and 5% CO2.
(§1) The day before measuring calcium activity, the cells were prepared at 3×10^5 cells per well in a 96-well flat clear bottom black plate (Costar, #3603). The prepared cells were treated with a Fura-2 QBT calcium kit (component A; Molecular Devices, #8197) at the same volume per well. After incubation at 37° C. for 1 hour, the cells were incubated in a dark room at room temperature for 30 minutes. After the Fura-2-treated cells, the prepared peptide, and a dedicated tip were placed at each section of FlexStation 3 Multi-Mode Microplate Reader (Molecular Devices, #Flex3), changes in calcium activity caused by the peptides were measured using SoftMax Pro 7 Software (Molecular Devices, #FLEX3-INSTALL-OS).

The target in test [2] is T2, FPR1 (Homo sapiens, UniProt P21462).
T2 sequence (P21462 1-350): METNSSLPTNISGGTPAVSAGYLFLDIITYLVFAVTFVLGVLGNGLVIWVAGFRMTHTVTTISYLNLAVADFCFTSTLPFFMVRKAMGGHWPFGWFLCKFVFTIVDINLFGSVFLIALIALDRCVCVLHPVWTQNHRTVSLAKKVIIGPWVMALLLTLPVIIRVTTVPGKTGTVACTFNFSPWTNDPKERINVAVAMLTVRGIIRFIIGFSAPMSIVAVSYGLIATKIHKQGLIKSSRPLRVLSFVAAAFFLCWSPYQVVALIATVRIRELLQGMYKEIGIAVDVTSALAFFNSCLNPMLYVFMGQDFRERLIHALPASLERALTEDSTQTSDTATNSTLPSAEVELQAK
Nature of the test: Change in calcium activity by peptide, FPR1 activation effect. The test is classed as cell-based. The following applies: calcium activity (Fura-2), graded per Table 3, read-out: EC50 for [Ca^2+] FPR1. The protocol:
as §1, with “#FLEX3-INSTALL-OS). […]” for “#FLEX3-INSTALL-OS).”

pEC50: −log10 of the molar value. Peptide text beside a SMILES is read from it.

Usually pEC50 stands for −log10 of the EC50, conventionally taken in molar units. Consider `CSCC[C@@H](NC(=O)[C@H](Cc1ccc(O)cc1)NC(=O)[C@H](CCCCN)NC(=O)[C@H](Cc1ccc(O)cc1)NC(=O)[C@H](CCCCN)NC(=O)[C@H](Cc1c[nH]c2ccccc12)NC(=O)[C@H](CCCCN)NC(C)=O)C(N)=O` [Peptide 36] (HELM PEPTIDE1{[ac].K.W.K.Y.K.Y.[dM].[am]}$$$$V2.0), for which the values for the pEC50 in test [1] and in test [2] were > 8.00 and < 5.00, respectively.
In the same order, the values of `CCCC(=O)N[C@@H](CCCNC(=N)N)C(=O)N[C@@H](CCSC)C(=O)N[C@@H](CCCNC(=N)N)C(=O)N[C@@H](Cc1ccc(O)cc1)C(=O)N[C@@H](CCCCN)C(=O)N1CCC[C@H]1C(=O)N[C@H](CCSC)C(N)=O` [Peptide 52] (HELM PEPTIDE1{[CCCC(=O)[*:2]].R.M.R.Y.K.P.[dM].[am]}$$$$V2.0) are > 8.00 and < 5.00.
For `CSCC[C@H](NC(=O)[C@H](CCCNC(=N)N)NC(C)=O)C(=O)N[C@@H](CCCNC(=N)N)C(=O)N[C@@H](Cc1ccc(O)cc1)C(=O)N[C@@H](Cc1c[nH]c2ccccc12)C(=O)N[C@H](C(=O)N[C@H](CCSC)C(N)=O)C(C)C` [Peptide 104] (HELM PEPTIDE1{[ac].R.M.R.Y.W.V.[dM].[am]}$$$$V2.0), in that order: > 8.00 and 5.00 to 6.00.
For `CSCC[C@@H](NC(=O)[C@@H](NC(=O)[C@H](CCCCN)NC(=O)[C@H](Cc1ccc(O)cc1)NC(=O)[C@H](CCCCN)NC(=O)[C@@H]1CCCN1C(C)=O)C(C)C)C(N)=O` [Peptide 139] (HELM PEPTIDE1{[ac].P.K.Y.K.V.[dM].[am]}$$$$V2.0), the pEC50 in test [1] is > 8.00; in test [2] it was < 5.00.
For `CSCC[C@@H](NC(=O)[C@@H](NC(=O)[C@H](CCCCN)NC(=O)[C@H](Cc1ccc(O)cc1)NC(=O)[C@H](CCCCN)NC(=O)[C@@H]1CCCN1)C(C)C)C(N)=O` [Peptide 138] (HELM PEPTIDE1{P.K.Y.K.V.[dM].[am]}$$$$V2.0), the pEC50 was > 8.00 in test [1] and < 5.00 in test [2].
For `CC[C@H](C)[C@H](N)C(=O)N[C@@H](CCCCN)C(=O)N[C@@H](Cc1ccc(O)cc1)C(=O)N[C@@H](CCCCN)C(=O)N[C@H](C(=O)N[C@H](CCSC)C(N)=O)C(C)C` [Peptide 134] (HELM PEPTIDE1{I.K.Y.K.V.[dM].[am]}$$$$V2.0), in that order: > 8.00 and < 5.00.
For `CCCC(=O)N[C@@H](Cc1c[nH]cn1)C(=O)N[C@@H](CCCCN)C(=O)N[C@@H](Cc1ccc(O)cc1)C(=O)N[C@@H](CCCCN)C(=O)N1CCC[C@H]1C(=O)N[C@H](CCSC)C(N)=O` [Peptide 148] (HELM PEPTIDE1{[CCCC(=O)[*:2]].H.K.Y.K.P.[dM].[am]}$$$$V2.0), in that order: > 8.00 and < 5.00.
In the same order, the values of `CSCC[C@H](NC(=O)[C@@H](N)Cc1c[nH]cn1)C(=O)N[C@@H](CCCNC(=N)N)C(=O)N[C@@H](Cc1ccc(O)cc1)C(=O)N[C@@H](CCCCN)C(=O)N1CCC[C@H]1C(=O)N[C@H](CCSC)C(N)=O` [Peptide 58] (HELM PEPTIDE1{H.M.R.Y.K.P.[dM].[am]}$$$$V2.0) are > 8.00 and < 5.00.
On to `CSCC[C@H](NC(=O)[C@@H]1CCCN1)C(=O)N[C@@H](CCCNC(=N)N)C(=O)N[C@@H](Cc1ccc(O)cc1)C(=O)N[C@@H](CCCCN)C(=O)N[C@@H](Cc1ccc(O)cc1)C(=O)N[C@H](CCSC)C(N)=O` [Peptide 46] (HELM PEPTIDE1{P.M.R.Y.K.Y.[dM].[am]}$$$$V2.0), for which the pEC50 in test [1] is > 8.00; in test [2], < 5.00.
In the same order, the values of `CSCC[C@H](NC(=O)[C@H](Cc1c[nH]cn1)NC(C)=O)C(=O)N[C@@H](CCCNC(=N)N)C(=O)N[C@@H](Cc1ccc(O)cc1)C(=O)N[C@@H](Cc1c[nH]c2ccccc12)C(=O)N[C@@H](Cc1ccc(O)cc1)C(=O)N[C@H](CCSC)C(N)=O` [Peptide 92] (HELM PEPTIDE1{[ac].H.M.R.Y.W.Y.[dM].[am]}$$$$V2.0) are > 8.00 and < 5.00.
In the same order, the values of `CSCC[C@@H](NC(=O)[C@H](Cc1ccc(O)cc1)NC(=O)[C@H](CC(N)=O)NC(=O)[C@H](Cc1ccc(O)cc1)NC(=O)[C@H](CCCNC(=N)N)NC(=O)[C@H](Cc1c[nH]c2ccccc12)NC(=O)[C@@H](N)CCCNC(=N)N)C(N)=O` [Peptide 155] (HELM PEPTIDE1{R.W.R.Y.N.Y.[dM].[am]}$$$$V2.0) are 7.00 to 7.96 and < 5.00.
For the molecule `CSCC[C@@H](NC(=O)[C@@H](NC(=O)[C@H](CCCCN)NC(=O)[C@H](Cc1ccc(O)cc1)NC(=O)[C@H](CCCNC(=N)N)NC(=O)[C@@H](N)Cc1c[nH]c2ccccc12)C(C)C)C(N)=O` [Peptide 3] (HELM PEPTIDE1{W.R.Y.K.V.[dM].[am]}$$$$V2.0), the results for the pEC50 in test [1] and in test [2] were > 8.00 and < 5.00, respectively.
For `CSCC[C@H](NC(=O)[C@H](CCCNC(=N)N)NC(C)=O)C(=O)N[C@@H](CCCNC(=N)N)C(=O)N[C@@H](Cc1ccc(O)cc1)C(=O)N[C@@H](Cc1c[nH]c2ccccc12)C(=O)N1CCC[C@H]1C(=O)N[C@H](CCSC)C(N)=O` [Peptide 107] (HELM PEPTIDE1{[ac].R.M.R.Y.W.P.[dM].[am]}$$$$V2.0), in that order: > 8.00 and 6.00 to 7.00.
As for `CSCC[C@H](N)C(=O)N[C@@H](CCCNC(=N)N)C(=O)N[C@@H](Cc1ccc(O)cc1)C(=O)N[C@@H](Cc1ccc(O)cc1)C(=O)N[C@H](C(=O)N[C@H](CCSC)C(N)=O)C(C)C` [Peptide 100] (HELM PEPTIDE1{M.R.Y.Y.V.[dM].[am]}$$$$V2.0), the pEC50 is > 8.00 in test [1] and 5.00 to 6.00 in test [2].
In the same order, the values of `CSCC[C@@H](NC(=O)[C@@H](NC(=O)[C@H](Cc1c[nH]c2ccccc12)NC(=O)[C@H](Cc1ccc(O)cc1)NC(=O)[C@H](CCCNC(=N)N)NC(=O)[C@H](Cc1c[nH]c2ccccc12)NC(=O)[C@@H](N)CCCNC(=N)N)C(C)C)C(N)=O` [Peptide 101] (HELM PEPTIDE1{R.W.R.Y.W.V.[dM].[am]}$$$$V2.0) are > 8.00 and 5.00 to 6.00.
For `CCCC(=O)N1CCC[C@H]1C(=O)N[C@@H](CCCCN)C(=O)N[C@@H](Cc1ccc(O)cc1)C(=O)N[C@@H](CCCCN)C(=O)N[C@H](C(=O)N[C@H](CCSC)C(N)=O)C(C)C` [Peptide 140] (HELM PEPTIDE1{[CCCC(=O)[*:2]].P.K.Y.K.V.[dM].[am]}$$$$V2.0), in that order: > 8.00 and < 5.00.
Regarding `CC[C@H](C)[C@H](N)C(=O)N[C@@H](CCCCN)C(=O)N[C@@H](Cc1ccccc1)C(=O)N[C@@H](Cc1c[nH]c2ccccc12)C(=O)N[C@@H](Cc1ccc(O)cc1)C(=O)N[C@H](CCSC)C(N)=O` [Peptide 128] (HELM PEPTIDE1{I.K.F.W.Y.[dM].[am]}$$$$V2.0), the figures for the pEC50 in test [1] and in test [2] were 7.00 to 7.96 and < 5.00, respectively.
As for `CSCC[C@H](NC(=O)[C@@H]1CCCN1)C(=O)N[C@@H](CCCNC(=N)N)C(=O)N[C@@H](Cc1ccc(O)cc1)C(=O)N[C@@H](CCCCN)C(=O)N1CCC[C@H]1C(=O)N[C@H](CCSC)C(N)=O` [Peptide 62] (HELM PEPTIDE1{P.M.R.Y.K.P.[dM].[am]}$$$$V2.0), the pEC50 in test [1] was > 8.00; in test [2] it was < 5.00.
In the same order, the values of `CCCC(=O)N[C@@H](CCCCN)C(=O)N[C@@H](CCSC)C(=O)N[C@@H](CCCCN)C(=O)N[C@@H](Cc1ccc(O)cc1)C(=O)N[C@@H](CCCCN)C(=O)N[C@H](C(=O)N[C@H](CCSC)C(N)=O)C(C)C` [Peptide 11] (HELM PEPTIDE1{[CCCC(=O)[*:2]].K.M.K.Y.K.V.[dM].[am]}$$$$V2.0) are > 8.00 and < 5.00.
